Experimental data published in patent US10456381B2, “Compositions and methods for treating plasma cell disorders and B-cell prolymphocytic disorders” (Knopp Biosciences LLC, priority 2013, dated 2019).
Where two headings read alike, the source gives them in different places.

Assays:
[1] = tested on: myeloid and lymphoid cell types, red blood cells, platelets; details: 300 mg daily, month 6
Experimental: Hematological parameters were measured in a Phase 3 study of dexpramipexole in ALS. Because of the high rate of mortality among ALS patients, including subjects in the Phase 3 trial, hematology parameters obtained at the month 6 visit were chosen for analysis to remove the effect of study dropouts in later months.

eosinophils [2] = details: for decline in mean serum eosinophils from baseline to week 12: 12 weeks, Part 1; for mean eosinophils at week 16 recovered to % of baseline levels: after one-month washout
Experimental: The Phase 2 trial was a two-part, double-blind study that evaluated the safety, tolerability, and clinical effects of dexpramipexole in ALS patients.
In Part 1, subjects were randomized to placebo (n=27), 50 mg/day (n=23), 150 mg/day (n=26), or 300 mg/day dexpramipexole (n=26) for 12 weeks.

eosinophils [3] = tested on: eosinophils
Experimental: In a 39-week repeat-dose toxicology study, minipigs were dosed at 0, 7.5, 25, and 75 mg/kg dexpramipexole by daily oral gavage through Study Day 45 and at 0, 7.5, 25, and 50 mg/kg dexpramipexole from Study Day 46 to study completion.

basophils = details: 300 mg daily
Experimental: (§1) The phase 3 clinical trial was a double-blind study of dexpramipexole in ALS patients randomized 1:1 to placebo or dexpramipexole 300 mg daily treatment. Hematology parameters were collected as part of routine safety monitoring. Eosinophil and basophil counts were retrospectively analyzed by visit.
Changes in basophil counts were also analyzed in the Phase 3 trial.

eosinophils [4] = tested on: eosinophils; remark: listed apart in the source
Experimental: as §1
Eosinophil levels were summarized over available time points and analyzed by ANOVA testing the effect of treatment vs. placebo on mean changes in serum eosinophil counts from baseline. Subjects with baseline eosinophils from 0 to 0.02×10^9/L (constituting less than 2% of all subjects analyzed) were censored from the primary analysis because of the inherent limitation to observe a decline from baseline.
Statistical analysis of the change from baseline was performed at month 6 to remove the effect of study dropouts in later months.

bone marrow cells = details: 30 mg/kg or 100 mg/kg daily gavage, 70 days, vs vehicle control
Experimental: The study consisted of 3 groups of BALB/cByJ mice (10 mice per group). Mice received daily gavage treatments of either 30 mg/kg, 100 mg/kg of dexpramipexole or vehicle control for 70 days. Bone marrow was processed into single cell suspensions and cells were stained with fluorescent conjugate antibodies to analyze the developmental stages of cells by flow cytometry. […] The columns depict the mean for each group and the error bar indicates the standard error of the mean.

[5] = exposures up to 18 months

CCCN[C@@H]1CCc2nc(N)sc2C1 [dexpramipexole, (6R)-2-amino-4,5,6,7-tetrahydro-6-(propylamino) benzothiazole]
all myeloid and lymphoid cell types measured, change from baseline [1]: statistically significant mean reductions
decline in mean serum eosinophils from baseline to week 12 (eosinophils [2]; 50 mg/day): 18.2%
mean eosinophils at week 16 recovered to % of baseline levels (eosinophils [2]; 150 mg/day group): 47 % of baseline levels
decline in mean serum eosinophils from baseline to week 12 (eosinophils [2]; 150 mg/day): 69.9%
mean eosinophils at week 16 recovered to % of baseline levels (eosinophils [2]; 300 mg/day group): 73 % of baseline levels
decline in mean serum eosinophils from baseline to week 12 (eosinophils [2]; 300 mg/day): 42.9%
decrease in eosinophil counts (eosinophils [2]; ALS subjects receiving dexpramipexole, Phase 2): dose- and time-dependent decrease
decline in eosinophils from week 16 to week 40 (eosinophils [2]; Part 2, 25 mg twice daily): 17.6%
decline in eosinophils from week 16 to week 40 (eosinophils [2]; Part 2, 150 mg twice daily): 78.9%
eosinophil counts in one subject with hypereosinophilia at Part 2 baseline (eosinophils [2]; one Phase 2 subject, persisted through month 12): decrease in eosinophil counts
safety assessment of eosinophil differences (eosinophils [3]; minipig, in vivo): not considered adverse
reduction in eosinophils (eosinophils [3]; minipigs, 7.5, 25 and 75/50 mg/kg daily oral gavage, 39 weeks): dose- and time-dependent reduction
time at which basophil count decline reached plateau (basophils; remained reduced through month 12): ~4 month
mean basophil counts reduced from baseline (basophils; six month analysis): 45.5%
subjects experiencing a 50% or greater decline in eosinophil count (eosinophils [4]; 300 mg daily, after 6 months of treatment): 77.5 % of subjects
peripheral blood eosinophil count (eosinophils [4]; 300 mg daily, after 8-12 weeks of treatment): profound decrease
mean eosinophil counts reduced from baseline (eosinophils [4]; 300 mg daily, month 6): 68.4%
decrease in eosinophil count in subjects with higher eosinophil counts (>0.25×10^9/L) (eosinophils [4]; 300 mg daily, n=42, after 6 months of treatment): 75%
time at which eosinophil-lowering effect reached plateau (eosinophils [4]; 300 mg daily, persisted through month 12): ~4 month
eosinophil counts in subject with highest baseline eosinophil count (eosinophils [4]; one Phase 3 subject, persisted through month 12): decrease in eosinophil counts
Siglec-F^lo IL5Rα^hi positive cells (developing B cells, basophils and other cell populations) in bone marrow (bone marrow cells): lowered
number of Scal^+ c-Kit^+ lineage negative cells (multipotent hematopoietic stem cells) in bone marrow (bone marrow cells): lowered
tolerability in humans [5]: well-tolerated
